The values below come from patent publication US6653316B1, “Substituted polycyclic aryl and heteroaryl pyrimidinones useful for selective inhibition of the coagulation cascade” (Pharmacia Corporation, priority 1999, dated 2003).

A value given as a limit tells only on which side of the number the result lay.

One test deals with T1, recombinant soluble tissue factor and recombinant human factor VIIa (TF-VIIa) (Homo sapiens, UniProt P08709).
T1 construct: conversion of coagulation factor VII to VIIa by Xa; host or cells: E. coli (soluble TF)
T1 sequence (P08709 213-466 limits assumed): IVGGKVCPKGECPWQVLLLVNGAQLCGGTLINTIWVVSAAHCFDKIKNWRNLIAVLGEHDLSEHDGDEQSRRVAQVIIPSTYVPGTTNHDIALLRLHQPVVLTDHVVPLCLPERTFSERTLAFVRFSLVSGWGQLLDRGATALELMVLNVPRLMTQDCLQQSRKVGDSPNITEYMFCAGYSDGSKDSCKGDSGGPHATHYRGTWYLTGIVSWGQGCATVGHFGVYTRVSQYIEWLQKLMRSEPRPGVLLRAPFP
T1 sequence (P08709 61-212 limits assumed): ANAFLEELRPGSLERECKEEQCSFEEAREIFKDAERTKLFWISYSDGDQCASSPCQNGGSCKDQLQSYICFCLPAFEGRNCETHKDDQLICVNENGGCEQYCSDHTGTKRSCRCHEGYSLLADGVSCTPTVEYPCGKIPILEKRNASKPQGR
T1 sequence (P13726 33-251 partner limits assumed): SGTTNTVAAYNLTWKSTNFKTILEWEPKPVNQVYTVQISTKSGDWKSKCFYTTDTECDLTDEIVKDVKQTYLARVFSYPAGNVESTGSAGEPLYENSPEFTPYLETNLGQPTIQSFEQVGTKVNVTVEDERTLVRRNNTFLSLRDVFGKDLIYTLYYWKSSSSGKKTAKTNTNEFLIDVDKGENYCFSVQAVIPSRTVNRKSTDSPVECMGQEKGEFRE
Put plainly: TF-VIIa Assay (chromogenic substrate hydrolysis, OD 405 nm). The class given is biochemical. Conditions: cells without % sign; 60 min at room temperature; read-out: IC50 or % Inhibition TF-VIIa (30 μM): IC50. As to the method:
In this assay 100 nM recombinant soluble tissue factor and 2 nM recombinant human factor VIIa are added to a 96-well assay plate containing 0.4 mM of the substrate, N-Methylsulfonyl-D-phe-gly-arg-p-nitroaniline and either inhibitor or buffer (5 mM CaCl2,50 mM Tris-HCl, pH 8.0, 100 mM NaCl, 0.1% BSA). The reaction, in a final volume of 100 ul is measured immediately at 405 nm to determine background absorbance. The plate is incubated at room temperature for 60 min, at which time the rate of hydrolysis of the substrate is measured by monitoring the reaction at 405 nm for the release of p-nitroaniline. Percent inhibition of TF-VIIa activity is calculated from OD405 nm value from the experimental and control sample.
(§1) Recombinant soluble TF, consisting of amino acids 1-219 of the mature protein sequence was expressed in E. coli and purified using a Mono Q Sepharose FPLC. Recombinant human VIIa was purchased from American Diagnostica, Greenwich Conn. and chromogenic substrate N-Methylsulfonyl-D-phe-gly-arg-p-nitroaniline was prepared by American Peptide Company, Inc., Sunnyvale, Calif. Factor Xa was obtained from Enzyme Research Laboratories, South Bend Ind., thrombin from Calbiochem, La Jolla, Calif., and trypsin and L-BAPNA from Sigma, St. Louis Mo. The chromogenic substrates S-2765 and S-2238 were purchased from Chromogenix, Sweden.
As usually defined, the IC50 is the midpoint of a concentration-inhibition curve. Take `COC(=O)c1cc(N)cc(-c2ncc(NC(C)C)c(=O)n2CC(=O)NCc2ccc(C(=N)N)cc2)c1` [Example 20]: the IC50 worked out at 80 nM.

Consider `N=C(N)c1ccc(CNC(=O)Cn2c(-c3ccccc3)ncc(NCCc3ccccc3)c2=O)cc1` [Example 3], for which the IC50 is 1000 nM.

`CC(C)Nc1cnc(-c2cccnc2)n(CC(=O)NCc2ccc(C(=N)N)cc2)c1=O` [Example 7]: the IC50 is 700 nM.

As for `N=C(N)c1ccc(CNC(=O)Cn2c(-c3cccc(N)c3)ncc(NC3CCC3)c2=O)cc1` [Example 8], the concentration for half-maximal inhibition (IC50) is 80 nM.

For `CC(C)Nc1cnc(-c2cccc(N)c2)n(CC(=O)NCc2ccc(C(=N)N)cc2)c1=O` [Example 6], the IC50 was 50 nM.

In the case of `N=C(N)c1ccc(CNC(=O)Cn2c(-c3ccccc3)ncc(NS(=O)(=O)Cc3ccccc3)c2=O)cc1` [Example 1], the IC50 came to 15400 nM.

For `CC(C)Nc1cnc(-c2cc(N)cc(C(=O)O)c2)n(CC(=O)NCc2ccc(C(=N)N)cc2)c1=O` [Example 21], the IC50 turned out to be 70 nM.

A further test has as its target human thrombin (Homo sapiens, UniProt P00734). Put plainly: Thrombin Assay (chromogenic substrate hydrolysis, OD 405 nm). The class given is biochemical. Conditions: @30 μM; read-out: IC50 or % Inhibition Thrombin II (30 μM): % inhibition. As to the method: 0.28 nM human thrombin and 0.06 mM H-D-Phenylalanyl-L-pipecolyl-L-arginine-p-nitroaniline dihydrochloride are added to a 96-well assay plate containing either inhibitor or buffer (50 mM Tris-HCl, pH 8.0. 100 mM NaCl, 0.1% BSA). The reaction, in a final volume of 100 ul is measured immediately at 405 nm to determine background absorbance. The plate is incubated at room temperature for 60 min, at which time the rate of hydrolysis of the substrate is measured by monitoring the reaction at 405 nm for the release of p-nitroaniline. Percent inhibition of thrombin activity is calculated from OD405 nm value from the experimental and control sample.
as §1
As a reminder, the inhibition is the change of the read-out against control, counted positive when it falls. Consider `N=C(N)c1ccc(CNC(=O)Cn2c(-c3cccc(N)c3)ncc(NC3CCC3)c2=O)cc1` [Example 8], for which the inhibition at 30 µM worked out at 42%.

`CC(C)Nc1cnc(-c2cccc(N)c2)n(CC(=O)NCc2ccc(C(=N)N)cc2)c1=O` [Example 6]: the inhibition at 30 µM stood at 43%.

Still in this test, the particulars now being: @100 μM; read-out: IC50 or % Inhibition Thrombin II (30 μM): % inhibition.
For `COC(=O)c1cc(N)cc(-c2ncc(NC(C)C)c(=O)n2CC(=O)NCc2ccc(C(=N)N)cc2)c1` [Example 20], the inhibition at 100 µM worked out at 41%.

`CC(C)Nc1cnc(-c2cc(N)cc(C(=O)O)c2)n(CC(=O)NCc2ccc(C(=N)N)cc2)c1=O` [Example 21]: the inhibition at 100 µM stood at 26%.

Still in this test, the particulars now being: cells without % sign; 60 min at room temperature; read-out: IC50 or % Inhibition Thrombin II (30 μM): IC50.
For the compound `N=C(N)c1cccc(CNC(=O)Cn2c(-c3ccccc3)ncc(NS(=O)(=O)Cc3ccccc3)c2=O)c1` [Example 2], the IC50 is > 30 µM.

For `CC(C)Nc1cnc(-c2cccnc2)n(CC(=O)NCc2ccc(C(=N)N)cc2)c1=O` [Example 7], the IC50 was 11.3 µM.

As for `N=C(N)c1ccc(CNC(=O)Cn2c(-c3ccccc3)ncc(NS(=O)(=O)Cc3ccccc3)c2=O)cc1` [Example 1], the IC50 amounted to 22.4 µM.

Another test deals with T2, human factor Xa (Homo sapiens, UniProt P00742).
T2 construct: purchased Enzyme Research Laboratories, South Bend Ind
T2 sequence (P00742 235-488 limits assumed): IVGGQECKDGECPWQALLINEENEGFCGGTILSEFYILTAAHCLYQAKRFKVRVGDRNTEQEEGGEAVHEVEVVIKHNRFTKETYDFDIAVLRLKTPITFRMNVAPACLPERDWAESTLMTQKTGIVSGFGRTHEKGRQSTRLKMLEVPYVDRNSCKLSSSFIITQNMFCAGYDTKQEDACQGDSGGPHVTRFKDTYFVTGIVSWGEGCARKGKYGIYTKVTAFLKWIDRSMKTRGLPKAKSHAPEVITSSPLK
T2 sequence (P00742 41-179 limits assumed): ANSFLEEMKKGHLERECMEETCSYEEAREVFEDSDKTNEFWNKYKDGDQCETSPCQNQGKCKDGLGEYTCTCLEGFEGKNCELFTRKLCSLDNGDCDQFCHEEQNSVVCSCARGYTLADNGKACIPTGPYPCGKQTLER
The experiment in a line: Xa Assay (chromogenic substrate S-2765 hydrolysis, OD 405 nm). Type of test: biochemical. Conditions: @30 μM; read-out: IC50 or % Inhibition Factor Xa (30 μM): % inhibition. The procedure: 0.3 nM human factor Xa and 0.15 mM N-α-Benzyloxycarbonyl-D-arginyl-L-glycyl-L-arginine-p-nitroaniline-dihydrochloride (S-2765) are added to a 96-well assay plate containing either inhibitor or buffer (50 mM Tris-HCl, pH 8.0, 100 mM NaCl, 0.1% BSA). The reaction. in a final volume of 100 ul is measured immediately at 405 nm to determine background absorbance. The plate is incubated at room temperature for 60 min, at which time the rate of hydrolysis of the substrate is measured by monitoring the reaction at 405 nm for the release of p-nitroaniline. Percent inhibition of Xa activity is calculated from OD405 nm value from the experimental and control sample.
as §1
With `CC(C)Nc1cnc(-c2cccnc2)n(CC(=O)NCc2ccc(C(=N)N)cc2)c1=O` [Example 7], the inhibition at 30 µM was 33%.

For `N=C(N)c1ccc(CNC(=O)Cn2c(-c3cccc(N)c3)ncc(NC3CCC3)c2=O)cc1` [Example 8], the inhibition at 30 µM was found to be 15%.

`CC(C)Nc1cnc(-c2cccc(N)c2)n(CC(=O)NCc2ccc(C(=N)N)cc2)c1=O` [Example 6]: the inhibition at 30 µM was 33%.

Still in this test, the particulars now being: @100 μM; read-out: IC50 or % Inhibition Factor Xa (30 μM): % inhibition.
`CC(C)Nc1cnc(-c2cc(N)cc(C(=O)O)c2)n(CC(=O)NCc2ccc(C(=N)N)cc2)c1=O` [Example 21]: the inhibition at 100 µM is 15%.

The test is the same for the next values; noted with them: cells without % sign; 60 min at room temperature; read-out: IC50 or % Inhibition Factor Xa (30 μM): IC50.
For `COC(=O)c1cc(N)cc(-c2ncc(NC(C)C)c(=O)n2CC(=O)NCc2ccc(C(=N)N)cc2)c1` [Example 20], the IC50 worked out at 85 µM.

The target of the next test is T3, trypsin, type IX from porcine pancreas (Sus scrofa, UniProt P00761).
T3 construct: purchased Sigma, St. Louis Mo. type IX; host or cells: porcine pancreas
T3 sequence (P00761 9-231): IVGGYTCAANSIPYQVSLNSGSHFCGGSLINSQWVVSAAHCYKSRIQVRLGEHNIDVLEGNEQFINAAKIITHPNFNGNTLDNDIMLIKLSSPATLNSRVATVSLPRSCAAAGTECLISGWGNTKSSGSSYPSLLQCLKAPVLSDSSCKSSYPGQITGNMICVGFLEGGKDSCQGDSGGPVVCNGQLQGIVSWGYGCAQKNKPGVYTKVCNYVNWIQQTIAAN
The experiment in a line: Trypsin Assay (L-BAPNA hydrolysis, OD 405 nm). Conditions: cells without % sign; 60 min at room temperature; read-out: IC50 or % Inhibition Trpysin II (30 μM): IC50. The class given is biochemical. The procedure: 5 ug/ml trypsin, type IX from porcine pancreas and 0.375 mM N-α-Benzoyl-L-arginine-p-nitroanilide (L-BAPNA) are added to a 96-well assay plate containing either inhibitor or buffer (50 mM Tris-HCl, pH 8.0, 100 mM NaCl, 0.1% BSA). The reactions, in a final volume of 100 ul are measured immediately at 405 nm to determine background absorbance. The plate is incubated at room temperature for 60 min, at which time the rate of hydrolysis of the substrate is measured by monitoring the reaction at 405 nm for the release of p-nitroaniline. Percent inhibition of trypsin activity is calculated from OD405 nm value from the experimental and control sample.
as §1
On to `COC(=O)c1cc(N)cc(-c2ncc(NC(C)C)c(=O)n2CC(=O)NCc2ccc(C(=N)N)cc2)c1` [Example 20], for which the IC50 turned out to be 30 nM.

In the case of `N=C(N)c1ccc(CNC(=O)Cn2c(-c3ccccc3)ncc(NCCc3ccccc3)c2=O)cc1` [Example 3], the IC50 is 600 nM.

Take `CC(C)Nc1cnc(-c2cccnc2)n(CC(=O)NCc2ccc(C(=N)N)cc2)c1=O` [Example 7]: the IC50 amounted to 40 nM.

Consider `N=C(N)c1ccc(CNC(=O)Cn2c(-c3cccc(N)c3)ncc(NC3CCC3)c2=O)cc1` [Example 8], for which the IC50 is 40 nM.

Turning to `CC(C)Nc1cnc(-c2cccc(N)c2)n(CC(=O)NCc2ccc(C(=N)N)cc2)c1=O` [Example 6], the IC50 was < 40 nM.

In the case of `N=C(N)c1ccc(CNC(=O)Cn2c(-c3ccccc3)ncc(NS(=O)(=O)Cc3ccccc3)c2=O)cc1` [Example 1], the IC50 was determined as 500 nM.

For `CC(C)Nc1cnc(-c2cc(N)cc(C(=O)O)c2)n(CC(=O)NCc2ccc(C(=N)N)cc2)c1=O` [Example 21], the IC50 came out at 50 nM.
